Assay results taken from patent US20080125469A1, “Thiadiazole compounds and methods of use thereof” (Wyeth, priority 2006, published 2008).

Molecular target: T1, purified recombinant human Aggrecanase-2 (Agg2-Phe628) (Homo sapiens, UniProt Q9UNA0)
T1 construct: (Agg2-Phe628) (MW=41,737), which is a truncated form of full-length human aggrecanase-2; made in house; host or cells: CHO cells
T1 sequence (Q9UNA0 262-628 limits assumed): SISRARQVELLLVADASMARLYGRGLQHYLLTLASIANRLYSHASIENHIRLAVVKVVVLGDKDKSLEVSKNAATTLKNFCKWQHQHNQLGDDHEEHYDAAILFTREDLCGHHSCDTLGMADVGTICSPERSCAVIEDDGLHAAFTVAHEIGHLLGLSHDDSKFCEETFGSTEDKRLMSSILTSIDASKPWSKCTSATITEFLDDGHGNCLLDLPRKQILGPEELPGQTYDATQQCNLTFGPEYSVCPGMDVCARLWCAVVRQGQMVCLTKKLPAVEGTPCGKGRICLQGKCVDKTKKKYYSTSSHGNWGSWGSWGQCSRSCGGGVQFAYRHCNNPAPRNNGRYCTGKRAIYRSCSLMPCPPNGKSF
Assay: Aggrecanase 2 continuous in vitro fluorescence assay
Format: biochemical
Conditions: Agg2-Phe628 0.5 μg/ml, substrate 25 μM, 30° C.; read-out: IC50
Description: A continuous vitro fluorescence assay was employed, wherein the enzyme used in the assay was a purified recombinant human Aggrecanase-2 (Agg2-Phe628) (MW=41,737), which is a truncated form of full-length human aggrecanase-2 that was expressed in CHO cells and purified prior to use. The final concentration of Agg2-Phe628 was 0.5 μg/ml. The buffer used in this assay was 50 mM HEPES, pH 7.5, 100 mM NaCl, 5 mM CaCl2, 0.1% CHAPS, 5% glycerol. The substrate used in the assay was a synthetic peptide having the sequence ABz-[sequence]-Dap(Dnp)-KK—NH2 (>95% pure by HPLC, AnaSpec, Inc.), wherein Abz refers to ortho-aminobenzyl, a fluorescent group which is quenched by energy transfer to a 2,4-dinitrophenyl group. The final concentration of substrate in the assay was 25 μM and was spectrophotometrically determined using the extinction coefficient at 354 nm of 18,172 M^−1cm^−1. The Vmax and Km for this enzyme/substrate reaction were determined to be insensitive to DMSO up to at least 10% (v/v).
The total reaction volume was 100 μl. The buffer and enzyme were added first followed by addition of 10× inhibitor from the dilution plate. Separate enzyme and buffer samples were included in order to obtain the maximal rate of substrate cleavage. The reaction was allowed to stand at 30° C. for 15 minutes, then substrate was added, the resultant solution was mixed. The resultant reaction was allowed to progress, with monitoring, for 40 minutes at 30° C. in kinetic mode using λex: 340 nm and λem: 420 (GeminiXS Molecular Devices).
The fluorescence intensity is linear during the time of data collection. The slope of the line (Vmax/sec) represents the initial reaction rate, ν. The maximal rate of cleavage of substrate was determined in the absence of inhibitor. The percent inhibition of activity in the presence of inhibitor was calculated using the following equation:
% inhibition=(1−ν(RFU/sec))/Maximal Rate(RFU/sec))*100
The IC50 was obtained by fitting the initial rate, ν or % inhibition at each concentration of inhibitor to the following equation:
This model describes a sigmoidal curve with an adjustable baseline, wherein:
y is the % inhibition or initial rate of reaction;
C is the concentration of inhibitor under test;
a is the limiting response as C approaches zero. As C increases without bound y tends toward its lower limit, d;
y is halfway between the lower and upper asymptotes when C=IC50; and
n is the Hill coefficient. The sign of n is positive when the response increases with increasing dose and is negative when the response decreases with increasing dose (inhibition).

| Compound | IC50 |
| --- | --- |
| COc1ccc(C2=NNC3(S2)C(=O)Nc2ccccc23)cc1 (centres unmarked) [Compound 3, 5′-(4-methoxyphenyl)-3′H-spiro[indole-3,2′-[1,3,4]thiadiazol]-2(1H)-one] | 13.4 µM |
| COc1ccc(C2=NNC3(S2)C(=O)N(c2ccc(Cl)cc2)c2ccc(C)cc23)cc1 (centres unmarked) [Compound 25, 1-(4-chlorophenyl)-5′-(4-methoxyphenyl)-5-methyl-3′H-spiro[indole-3,2′-[1,3,4]thiadiazol]-2(1H)-one] | 1.48 µM |
| ethyl [5′-(4-methoxyphenyl)-2-oxo-3′H-spiro[indole-3,2′-[1,3,4]thiadiazol]-1(2H)-yl]acetate [Compound 9] | 3.68 µM |
| COc1ccc(C2=NNC3(S2)C(=O)Nc2cc(Cl)ccc23)cc1 (centres unmarked) [Compound 12, 6-chloro-5′-(4-methoxyphenyl)-3′H-spiro[indole-3,2′-[1,3,4]thiadiazol]-2(1H)-one] | 1.19 µM |
| Cc1ccc(C2=NNC3(S2)C(=O)N(c2ccccc2C)c2ccc(C)cc23)cc1 (centres unmarked) [Compound 32, 5-methyl-1-(2-methylphenyl)-5′-(4-methylphenyl)-3′H-spiro[indole-3,2′-[1,3,4]thiadiazol]-2(1H)-one] | 1.22 µM |
| CCc1ccc2c(c1)C1(NN=C(c3cccc(OC)c3)S1)C(=O)N2 (centres unmarked) [Compound 30, 5-ethyl-5′-(3-methoxyphenyl)-3′H-spiro[indole-3,2′-[1,3,4]thiadiazol]-2(1H)-one] | 5.93 µM |
| COc1ccc(C2=NNC3(S2)C(=O)N(c2ccccc2C)c2ccc(C)cc23)cc1 (centres unmarked) [Compound 23, 5′-(4-methoxyphenyl)-5-methyl-1-(2-methylphenyl)-3′H-spiro[indole-3,2′-[1,3,4]thiadiazol]-2(1H)-one] | 0.899 µM |
| COc1ccc(C2=NNC3(S2)C(=O)Nc2c3ccc(Cl)c2C)cc1 (centres unmarked) [Compound 17, 6-chloro-5′-(4-methoxyphenyl)-7-methyl-3′H-spiro[indole-3,2′-[1,3,4]thiadiazol]-2(1H)-one] | 1.04 µM |
| Cc1ccc(C2=NNC3(S2)C(=O)N(Cc2ccccc2)c2ccc(C)cc23)cc1 (centres unmarked) [Compound 33, 1-benzyl-5-methyl-5′-(4-methylphenyl)-3′H-spiro[indole-3,2′-[1,3,4]thiadiazol]-2(1H)-one] | 0.612 µM |

Next, values leading:

| IC50 | Compound |
| --- | --- |
| 2.62 µM | O=C1N(c2ccccc2)c2ccccc2C12NN=C(c1ccccc1)S2 (centres unmarked) [Compound 38, 1,5′-diphenyl-3′H-spiro[indole-3,2′-[1,3,4]thiadiazol]-2(1H)-one] |
| 11.1 µM | Cc1ccc2c(c1)C1(NN=C(c3ccccc3)S1)C(=O)N2 (centres unmarked) [Compound 55, 5-methyl-5′-phenyl-3′H-spiro[indoline-3,2′-[1,3,4]thiadiazol]-2-one] |
| 30 µM | O=C1Nc2ccccc2C12NN=C(c1ccccc1)S2 (centres unmarked) [Compound 53, 5′-phenyl-3′H-spiro[indoline-3,2′-[1,3,4]thiadiazol]-2-one] |
| 13.6 µM | O=C1Nc2ccc(Br)cc2C12NN=C(c1ccccc1)S2 (centres unmarked) [Compound 54, 5-bromo-5′-phenyl-3′H-spiro[indoline-3,2′-[1,3,4]thiadiazol]-2-one] |
| 1.52 µM | CCCC(=O)N1C(=O)C2(NN=C(c3ccc(OC)cc3)S2)c2cc(CC)ccc21 (centres unmarked) [Compound 46, 1-butyryl-5-ethyl-5′-(4-methoxyphenyl)-3′H-spiro[indole-3,2′-[1,3,4]thiadiazol]-2(1H)-one] |
| 3.05 µM | CC(C)N1C(=O)C2(NN=C(c3ccccc3)S2)c2ccccc21 (centres unmarked) [Compound 42, 1-isopropyl-5′-phenyl-3′H-spiro[indole-3,2′-[1,3,4]thiadiazol]-2(1H)-one] |

Same assay, conditions: inhibitor concentration not given

| % Inhibition | Compound |
| --- | --- |
| 9.6% | CCc1ccc2c(c1)C1(NN=C(c3ccccc3)S1)C(=O)N2 (centres unmarked) [Compound 47, 5-ethyl-5′-phenyl-3′H-spiro[indole-3,2′-[1,3,4]thiadiazol]-2(1H)-one] |
| 48% | 1-(4-chlorobenzoyl)-5′-(4-methoxyphenyl)-3′H-spiro[indole-3,2′-[1,3,4]thiadiazol]-2(1H)-one [Compound 36] |
